Measurements published in PubChem BioAssay AID1745844 (Carcinogenic Potency Database (CPDB), 2022).
Where “and” joins values, the source holds several entries; their conditions need not be identical. Identical values can stand only once. Calls of active or inactive are those of the source. How the calls were made is not given here.

Test system: rodent lifetime carcinogenesis bioassay, tumor incidence TD50
Test: carcinogenic potency in animals, long-term in vivo studies, CPDB compilation (AID 1745844)
[1] = mouse, strain Charles River CD1, females, in drinking water, site: all sites, lesion: all vascular tumors, dosed 52 weeks, study length 52 weeks
[2] = mouse, strain Charles River CD1, males, in drinking water, site: all sites, lesion: all vascular tumors, dosed 52 weeks, study length 52 weeks
[3] = mouse, strain Charles River CD1, males, in drinking water, site: liver, lesion: hepatocellular carcinoma, dosed 52 weeks, study length 52 weeks
[4] = mouse, strain Charles River CD1, males, in drinking water, site: liver, lesion: several types, types named in the paper, dosed 52 weeks, study length 52 weeks
[5] = mouse, strain Charles River CD1, males, in drinking water, site: lung, lesion: alveolar/bronchiolar adenoma, dosed 52 weeks, study length 52 weeks

CN(C)N
TD50 (hamster, strain Syrian Golden, females, in drinking water, site: blood vessels, lesion: several types, types named in the paper, dosed 79 weeks, study length 79 weeks): 620 mg/kg/day
TD50 (hamster, strain Syrian Golden, females, in drinking water, site: cecum, lesion: several types, types named in the paper, dosed 79 weeks, study length 79 weeks): 104 mg/kg/day
TD50 (hamster, strain Syrian Golden, females, in drinking water, site: liver, lesion: several types, types named in the paper, dosed 79 weeks, study length 79 weeks): 620 mg/kg/day
TD50 (hamster, strain Syrian Golden, males, in drinking water, site: blood vessels, lesion: several types, types named in the paper, dosed 91 weeks, study length 91 weeks): 183 mg/kg/day
TD50 (hamster, strain Syrian Golden, males, in drinking water, site: cecum, lesion: adenocarcinoma, dosed 91 weeks, study length 91 weeks): 322 mg/kg/day
TD50 (hamster, strain Syrian Golden, males, in drinking water, site: cecum, lesion: polypoid adenoma, dosed 91 weeks, study length 91 weeks): 372 mg/kg/day
TD50 (hamster, strain Syrian Golden, males, in drinking water, site: cecum, lesion: several types, types named in the paper, dosed 91 weeks, study length 91 weeks): 155 mg/kg/day
TD50 (hamster, strain Syrian Golden, males, in drinking water, site: liver, lesion: angioma, dosed 91 weeks, study length 91 weeks): 975 mg/kg/day
TD50 (hamster, strain Syrian Golden, males, in drinking water, site: liver, lesion: angiosarcoma, dosed 91 weeks, study length 91 weeks): 242 mg/kg/day
TD50 (hamster, strain Syrian Golden, males, in drinking water, site: liver, lesion: several types, types named in the paper, dosed 91 weeks, study length 91 weeks): 183 mg/kg/day
TD50 [1]: 26 mg/kg/day
carcinogen call [1]: negative (inactive)
TD50 (mouse, strain Charles River CD1, females, in drinking water, site: all sites, lesion: all vascular tumors, dosed 104 weeks, study length 104 weeks): 11.1 mg/kg/day
TD50 (mouse, strain Charles River CD1, females, in drinking water, site: all sites, lesion: hemangioma, dosed 52 weeks, study length 52 weeks): 39.7 mg/kg/day
TD50 (mouse, strain Charles River CD1, females, in drinking water, site: all sites, lesion: hemangiosarcoma, dosed 52 weeks, study length 52 weeks): 80.8 mg/kg/day
TD50 (mouse, strain Charles River CD1, females, in drinking water, site: liver, lesion: all vascular tumors, dosed 52 weeks, study length 52 weeks): 26 mg/kg/day
TD50 (mouse, strain Charles River CD1, females, in drinking water, site: liver, lesion: hemangioma, dosed 52 weeks, study length 52 weeks): 39.7 mg/kg/day
TD50 (mouse, strain Charles River CD1, females, in drinking water, site: liver, lesion: hemangiosarcoma, dosed 52 weeks, study length 52 weeks): 80.8 mg/kg/day
TD50 (mouse, strain Charles River CD1, females, in drinking water, site: liver, lesion: hepatocellular adenoma, dosed 104 weeks, study length 104 weeks): 98.7 mg/kg/day and 63.6 mg/kg/day
TD50 (mouse, strain Charles River CD1, females, in drinking water, site: liver, lesion: hepatocellular carcinoma, dosed 104 weeks, study length 104 weeks): 340 mg/kg/day
carcinogen call (mouse, strain Charles River CD1, females, in drinking water, site: liver, lesion: one or several types, types not named, dosed 52 weeks, study length 52 weeks): negative (inactive)
TD50 (mouse, strain Charles River CD1, females, in drinking water, site: liver, lesion: several types, types named in the paper, dosed 104 weeks, study length 104 weeks): 74.7 mg/kg/day
TD50 (mouse, strain Charles River CD1, females, in drinking water, site: lung, lesion: alveolar/bronchiolar carcinoma, dosed 52 weeks, study length 52 weeks): 81.5 mg/kg/day
TD50 (mouse, strain Charles River CD1, females, in drinking water, site: lung, lesion: several types, types named in the paper, dosed 52 weeks, study length 52 weeks): 3.68 mg/kg/day
TD50 [2]: 12.6 mg/kg/day
carcinogen call [2]: negative (inactive)
TD50 (mouse, strain Charles River CD1, males, in drinking water, site: all sites, lesion: all vascular tumors, dosed 104 weeks, study length 104 weeks): 6.13 mg/kg/day
TD50 (mouse, strain Charles River CD1, males, in drinking water, site: all sites, lesion: hemangioma, dosed 52 weeks, study length 52 weeks): 33.4 mg/kg/day
TD50 (mouse, strain Charles River CD1, males, in drinking water, site: all sites, lesion: hemangioma, dosed 104 weeks, study length 104 weeks): 339 mg/kg/day
TD50 (mouse, strain Charles River CD1, males, in drinking water, site: all sites, lesion: hemangiosarcoma, dosed 52 weeks, study length 52 weeks): 21.7 mg/kg/day
TD50 (mouse, strain Charles River CD1, males, in drinking water, site: liver, lesion: all vascular tumors, dosed 52 weeks, study length 52 weeks): 12.6 mg/kg/day
TD50 (mouse, strain Charles River CD1, males, in drinking water, site: liver, lesion: all vascular tumors, dosed 104 weeks, study length 104 weeks): 6.47 mg/kg/day
TD50 (mouse, strain Charles River CD1, males, in drinking water, site: liver, lesion: hemangioma, dosed 52 weeks, study length 52 weeks): 33.4 mg/kg/day
TD50 (mouse, strain Charles River CD1, males, in drinking water, site: liver, lesion: hemangioma, dosed 104 weeks, study length 104 weeks): 339 mg/kg/day
TD50 (mouse, strain Charles River CD1, males, in drinking water, site: liver, lesion: hemangiosarcoma, dosed 52 weeks, study length 52 weeks): 21.7 mg/kg/day
TD50 (mouse, strain Charles River CD1, males, in drinking water, site: liver, lesion: hepatocellular adenoma, dosed 52 weeks, study length 52 weeks): 26.7 mg/kg/day (inactive)
TD50 [3]: 10.8 mg/kg/day
carcinogen call [3]: negative (inactive)
TD50 (mouse, strain Charles River CD1, males, in drinking water, site: liver, lesion: hepatocellular carcinoma, dosed 104 weeks, study length 104 weeks): 11.9 mg/kg/day and 33.4 mg/kg/day
TD50 [4]: 6.28e+06 mg/kg/day
carcinogen call [4]: negative (inactive)
TD50 [5]: 5.18 mg/kg/day
carcinogen call [5]: negative (inactive)
TD50 (mouse, strain Charles River CD1, males, in drinking water, site: lung, lesion: alveolar/bronchiolar carcinoma, dosed 52 weeks, study length 52 weeks): 67.4 mg/kg/day
TD50 (mouse, strain Charles River CD1, males, in drinking water, site: lung, lesion: alveolar/bronchiolar carcinoma, dosed 104 weeks, study length 104 weeks): 89 mg/kg/day and 33.4 mg/kg/day
TD50 (mouse, strain Charles River CD1, males, in drinking water, site: lung, lesion: several types, types named in the paper, dosed 52 weeks, study length 52 weeks): 4.33 mg/kg/day
TD50 (mouse, strain Charles River CD1, males, in drinking water, site: lung, lesion: several types, types named in the paper, dosed 104 weeks, study length 104 weeks): 39.6 mg/kg/day and 26.4 mg/kg/day
TD50 (mouse, strain Swiss albino, females, in drinking water, site: blood vessels, lesion: angiosarcoma, dosed 72 weeks, study length 72 weeks): 3.57 mg/kg/day
TD50 (mouse, strain Swiss albino, females, in drinking water, site: blood vessels, lesion: several types, types named in the paper, dosed 72 weeks, study length 72 weeks): 3.65 mg/kg/day
TD50 (mouse, strain Swiss albino, females, in drinking water, site: kidney, lesion: adenoma, dosed 72 weeks, study length 72 weeks): 148 mg/kg/day
TD50 (mouse, strain Swiss albino, females, in drinking water, site: lung, lesion: adenocarcinoma, dosed 72 weeks, study length 72 weeks): 51.6 mg/kg/day
TD50 (mouse, strain Swiss albino, females, in drinking water, site: lung, lesion: adenoma, dosed 72 weeks, study length 72 weeks): 5.58 mg/kg/day
TD50 (mouse, strain Swiss albino, females, in drinking water, site: lung, lesion: several types, types named in the paper, dosed 72 weeks, study length 72 weeks): 5.69 mg/kg/day
TD50 (mouse, strain Swiss albino, males, in drinking water, site: blood vessels, lesion: angiosarcoma, dosed 62 weeks, study length 62 weeks): 2.09 mg/kg/day
TD50 (mouse, strain Swiss albino, males, in drinking water, site: blood vessels, lesion: several types, types named in the paper, dosed 62 weeks, study length 62 weeks): 2.11 mg/kg/day
TD50 (mouse, strain Swiss albino, males, in drinking water, site: kidney, lesion: adenoma, dosed 62 weeks, study length 62 weeks): 19.5 mg/kg/day
TD50 (mouse, strain Swiss albino, males, in drinking water, site: liver, lesion: hepatoma, dosed 62 weeks, study length 62 weeks): 30.4 mg/kg/day
TD50 (mouse, strain Swiss albino, males, in drinking water, site: lung, lesion: adenocarcinoma, dosed 62 weeks, study length 62 weeks): 46.6 mg/kg/day
TD50 (mouse, strain Swiss albino, males, in drinking water, site: lung, lesion: adenoma, dosed 62 weeks, study length 62 weeks): 2.62 mg/kg/day
TD50 (mouse, strain Swiss albino, males, in drinking water, site: lung, lesion: several types, types named in the paper, dosed 62 weeks, study length 62 weeks): 2.62 mg/kg/day
TD50 (mouse, strain Swiss, females, by gavage, site: lung, lesion: one or several types, types not named, dosed 40 weeks, study length 55 weeks): 16 mg/kg/day
carcinogen call (rat, strain Fischer 344, females, in drinking water, site: liver, lesion: hemangioma, dosed 52 weeks, study length 52 weeks): negative (inactive)
TD50 (rat, strain Fischer 344, females, in drinking water, site: liver, lesion: hepatocellular adenoma, dosed 104 weeks, study length 104 weeks): 184 mg/kg/day (inactive)
TD50 (rat, strain Fischer 344, females, in drinking water, site: liver, lesion: hepatocellular carcinoma, dosed 104 weeks, study length 104 weeks): 40.7 mg/kg/day (inactive)
TD50 (rat, strain Fischer 344, females, in drinking water, site: liver, lesion: several types, types named in the paper, dosed 104 weeks, study length 104 weeks): 30.9 mg/kg/day (inactive)
TD50 (rat, strain Fischer 344, females, in drinking water, site: pituitary gland, lesion: adenoma, dosed 104 weeks, study length 104 weeks): 14.8 mg/kg/day (inactive)
TD50 (rat, strain Fischer 344, males, in drinking water, site: liver, lesion: hepatocellular adenoma, dosed 104 weeks, study length 104 weeks): 205 mg/kg/day (inactive)
TD50 (rat, strain Fischer 344, males, in drinking water, site: liver, lesion: hepatocellular carcinoma, dosed 104 weeks, study length 104 weeks): 650 mg/kg/day (inactive)
carcinogen call (rat, strain Fischer 344, males, in drinking water, site: liver, lesion: one or several types, types not named, dosed 52 weeks, study length 52 weeks): negative (inactive)
TD50 (rat, strain Fischer 344, males, in drinking water, site: liver, lesion: several types, types named in the paper, dosed 104 weeks, study length 104 weeks): 155 mg/kg/day (inactive)

CC(=O)OCC(=O)[C@@]12N=C(C)O[C@@H]1C[C@H]1[C@@H]3CCC4=CC(=O)C=C[C@]4(C)[C@H]3[C@@H](O)C[C@@]12C
TD50 (rat, strain Charles River CD (Sprague-Dawley), females, in feed, site: head, lesion: osteosarcoma, dosed 104 weeks, study length 104 weeks): 66.8 mg/kg/day
carcinogen call (rat, strain Charles River CD (Sprague-Dawley), males, in feed, site: bone, lesion: several types, types named in the paper, dosed 104 weeks, study length 104 weeks): positive
carcinogen call (rat, strain Charles River CD (Sprague-Dawley), males, in feed, site: head, lesion: osteosarcoma, dosed 104 weeks, study length 104 weeks): positive

N#Cc1ccc(C2CCCc3cncn32)cc1 (centres undefined)
carcinogen call (rat, strain Sprague-Dawley, females, by gavage, site: any site (literature study), lesion: several types, types named in the paper, dosed 104 weeks, study length 104 weeks): negative (inactive)
carcinogen call (rat, strain Sprague-Dawley, females, by gavage, site: liver, lesion: several types, types named in the paper, dosed 104 weeks, study length 104 weeks): negative (inactive)
carcinogen call (rat, strain Sprague-Dawley, females, by gavage, site: mammary gland, lesion: several types, types named in the paper, dosed 104 weeks, study length 104 weeks): negative (inactive)
carcinogen call (rat, strain Sprague-Dawley, males, by gavage, site: liver, lesion: several types, types named in the paper, dosed 104 weeks, study length 104 weeks): negative (inactive)

CCCCC/C=C\C/C=C\CCCCCCCC(=O)OC
carcinogen call (rat, strain Wistar, males, by gavage, site: gastrointestinal tract, lesion: several types, types named in the paper, dosed 30 weeks, study length 87 weeks): negative (inactive)
carcinogen call (rat, strain Wistar, males, by gavage, site: liver, lesion: one or several types, types not named, dosed 30 weeks, study length 87 weeks): negative (inactive)
